From PubChem BioAssay (NCI)
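Values below derive from 48-hour exposures of cells grown in 96-well plates, with endpoints linearly interpolated between the two concentrations bracketing the appropriate inhibition level. At the GI50, growth is halved. TGI: concentration producing complete growth inhibition.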

Experiments:
Assay in all cases: NCI-60 cell line screen, 48 h
SW-620 colon = test system: SW-620 colon
HCT-116 colon = test system: HCT-116 colon
SK-OV-3 ovarian = test system: SK-OV-3 ovarian
UO-31 renal = test system: UO-31 renal
OVCAR-5 ovarian = test system: OVCAR-5 ovarian
SNB-75 CNS = test system: SNB-75 CNS
HCT-15 colon = test system: HCT-15 colon
CAKI-1 renal = test system: CAKI-1 renal
MALME-3M melanoma = test system: MALME-3M melanoma
MDA-MB-435 = test system: MDA-MB-435

C#CC1(O)CCC2[C@@H]3CCc4cc(Oc5nc(F)nc(-c6c7ccccc7cn6C)n5)ccc4C3CC[C@@]21C (stereo partly specified)
TGI (SW-620 colon): > 100 µM
TGI (HCT-116 colon): > 100 µM
TGI (SK-OV-3 ovarian): > 100 µM
TGI (UO-31 renal): > 100 µM
TGI (OVCAR-5 ovarian): > 100 µM
TGI (SNB-75 CNS): > 100 µM
TGI (HCT-15 colon): > 100 µM
TGI (CAKI-1 renal): > 100 µM
TGI (MALME-3M melanoma): > 100 µM

COc1ccc(Cn2cc3c(c2-c2ccccc2)CCc2cnoc2-3)cc1N
GI50 (SW-620 colon): 0.0779 µM
TGI (SW-620 colon): > 100 µM
GI50 (HCT-116 colon): 0.0996 µM
TGI (HCT-116 colon): > 33.9 µM
GI50 (SK-OV-3 ovarian): 0.252 µM
TGI (SK-OV-3 ovarian): > 100 µM
GI50 (UO-31 renal): 0.967 µM
TGI (UO-31 renal): > 100 µM
GI50 (OVCAR-5 ovarian): 0.629 µM
TGI (OVCAR-5 ovarian): > 100 µM
GI50 (SNB-75 CNS): 0.114 µM
TGI (SNB-75 CNS): 0.777 µM
GI50 (HCT-15 colon): 0.15 µM
TGI (HCT-15 colon): > 100 µM
GI50 (CAKI-1 renal): 0.116 µM
TGI (CAKI-1 renal): > 100 µM

Cc1ccc(C)c(NC(=O)CC2SC(=Nc3ccccc3Cl)NC2=O)c1 (stereo unspecified)
TGI (SW-620 colon): > 100 µM
TGI (HCT-116 colon): > 100 µM
TGI (SK-OV-3 ovarian): > 100 µM
TGI (UO-31 renal): > 100 µM
TGI (OVCAR-5 ovarian): > 100 µM
TGI (SNB-75 CNS): > 100 µM
TGI (HCT-15 colon): > 100 µM
TGI (CAKI-1 renal): > 100 µM
TGI (MALME-3M melanoma): > 100 µM

Nc1nc(=O)n([C@@H]2CS[C@H](CO)O2)cc1F
GI50 (SW-620 colon): > 100 µM
TGI (SW-620 colon): > 100 µM
GI50 (MDA-MB-435): > 100 µM
TGI (MDA-MB-435): > 100 µM
GI50 (HCT-116 colon): > 100 µM
TGI (HCT-116 colon): > 100 µM
GI50 (SK-OV-3 ovarian): > 100 µM
TGI (SK-OV-3 ovarian): > 100 µM
GI50 (UO-31 renal): > 100 µM
TGI (UO-31 renal): > 100 µM
GI50 (OVCAR-5 ovarian): > 100 µM
TGI (OVCAR-5 ovarian): > 100 µM
GI50 (HCT-15 colon): > 100 µM
TGI (HCT-15 colon): > 100 µM
GI50 (CAKI-1 renal): > 100 µM
TGI (CAKI-1 renal): > 100 µM
GI50 (MALME-3M melanoma): > 100 µM
TGI (MALME-3M melanoma): > 100 µM

O=c1[nH]c(=O)n(C2OC(CO)C(O)C2O)cc1OCC(F)(F)F (stereo unspecified)
TGI (SW-620 colon): > 100 µM
TGI (HCT-116 colon): > 100 µM
TGI (SK-OV-3 ovarian): > 100 µM
TGI (UO-31 renal): > 100 µM
TGI (OVCAR-5 ovarian): > 100 µM
TGI (SNB-75 CNS): > 100 µM
TGI (HCT-15 colon): > 100 µM
TGI (CAKI-1 renal): > 100 µM
TGI (MALME-3M melanoma): > 100 µM

CC(=O)N(O)Cc1ccccc1
TGI (SW-620 colon): > 100 µM
TGI (HCT-116 colon): > 100 µM
TGI (SK-OV-3 ovarian): > 100 µM
TGI (UO-31 renal): > 100 µM
TGI (OVCAR-5 ovarian): > 100 µM
TGI (SNB-75 CNS): > 100 µM
TGI (HCT-15 colon): > 100 µM
TGI (CAKI-1 renal): > 100 µM
TGI (MALME-3M melanoma): > 100 µM

c1ccc(P(=C2c3ccccc3-c3ccccc32)(c2ccccc2)c2ccccc2)cc1
TGI (SW-620 colon): 10.4 µM
TGI (SK-OV-3 ovarian): 80.1 µM
TGI (UO-31 renal): 70.7 µM
TGI (OVCAR-5 ovarian): 48.3 µM
TGI (SNB-75 CNS): 83.8 µM
TGI (HCT-15 colon): 52.2 µM
TGI (CAKI-1 renal): > 100 µM

Clc1ccccc1C(Nc1ncccn1)Nc1ncccn1
TGI (SW-620 colon): > 100 µM
TGI (MDA-MB-435): > 100 µM
TGI (HCT-116 colon): > 100 µM
TGI (SK-OV-3 ovarian): > 100 µM
TGI (UO-31 renal): > 100 µM
TGI (OVCAR-5 ovarian): > 100 µM
TGI (SNB-75 CNS): > 100 µM
TGI (HCT-15 colon): > 100 µM
TGI (CAKI-1 renal): > 100 µM

CCOC(=O)c1cnn2c3ccccc3n(S(=O)(=O)c3ccc(OC)cc3)c12
GI50 (SW-620 colon): 0.269 µM
TGI (SW-620 colon): > 100 µM
GI50 (MDA-MB-435): 0.0473 µM
TGI (MDA-MB-435): > 100 µM
GI50 (HCT-116 colon): 0.305 µM
TGI (HCT-116 colon): > 50.4 µM
GI50 (SK-OV-3 ovarian): 0.786 µM
TGI (SK-OV-3 ovarian): > 100 µM
GI50 (UO-31 renal): 0.56 µM
TGI (UO-31 renal): > 78.7 µM
GI50 (OVCAR-5 ovarian): 0.558 µM
TGI (OVCAR-5 ovarian): > 100 µM
GI50 (HCT-15 colon): 0.119 µM
TGI (HCT-15 colon): > 100 µM
GI50 (CAKI-1 renal): 0.204 µM
TGI (CAKI-1 renal): > 83.7 µM
GI50 (MALME-3M melanoma): 0.598 µM
TGI (MALME-3M melanoma): > 100 µM

CCOc1ccc(O)cc1[P+](c1ccccc1)(c1ccccc1)c1ccccc1
TGI (HCT-116 colon): 13.7 µM
TGI (SK-OV-3 ovarian): 27.1 µM
TGI (UO-31 renal): 52.5 µM
TGI (OVCAR-5 ovarian): 13.1 µM
TGI (SNB-75 CNS): 25.6 µM
TGI (CAKI-1 renal): 23.4 µM
TGI (MALME-3M melanoma): 20.1 µM

Cc1ccc(NC(=O)/C(=N/N(C)C)C(C2OC(=O)c3ccccc32)[N+](=O)[O-])cc1 (stereo unspecified)
TGI (SW-620 colon): > 100 µM
TGI (MDA-MB-435): > 100 µM
TGI (HCT-116 colon): > 100 µM
TGI (SK-OV-3 ovarian): > 100 µM
TGI (UO-31 renal): > 100 µM
TGI (OVCAR-5 ovarian): > 100 µM
TGI (SNB-75 CNS): > 100 µM
TGI (HCT-15 colon): > 100 µM
TGI (CAKI-1 renal): > 100 µM

O=c1[nH]c(=O)n(C2CC(O)C(CO)O2)cc1C#Cc1ccc(F)cc1 (stereo unspecified)
TGI (SW-620 colon): > 100 µM
TGI (SK-OV-3 ovarian): > 100 µM
TGI (UO-31 renal): > 100 µM
TGI (OVCAR-5 ovarian): > 100 µM
TGI (SNB-75 CNS): > 100 µM
TGI (HCT-15 colon): > 100 µM
TGI (CAKI-1 renal): > 100 µM
TGI (MALME-3M melanoma): > 100 µM

COc1cc2c(cc1C1=NC(C)(C)CO1)OCO2
TGI (SW-620 colon): > 100 µM
TGI (HCT-116 colon): > 100 µM
TGI (SK-OV-3 ovarian): > 100 µM
TGI (UO-31 renal): > 100 µM
TGI (SNB-75 CNS): > 100 µM
TGI (HCT-15 colon): > 100 µM
TGI (CAKI-1 renal): > 100 µM
TGI (MALME-3M melanoma): > 100 µM

CCN(CC)CCn1[nH]c2c3ccc(=O)cc3sc3c(NCCN)ccc1c32
TGI (SW-620 colon): 4.77 µM
TGI (HCT-116 colon): 2.19 µM
TGI (SK-OV-3 ovarian): 3.74 µM
TGI (UO-31 renal): 52.1 µM
TGI (OVCAR-5 ovarian): 4.87 µM
TGI (SNB-75 CNS): 3.61 µM
TGI (HCT-15 colon): 16.7 µM
TGI (CAKI-1 renal): 11.5 µM
TGI (MALME-3M melanoma): 2.73 µM

COc1ccc(Nc2nc3cc(N)cc(N)c3nc2-c2ccccc2)cc1OC
GI50 (SW-620 colon): 15.5 µM
TGI (SW-620 colon): 35.9 µM
GI50 (MDA-MB-435): 16.3 µM
TGI (MDA-MB-435): 32.1 µM
GI50 (HCT-116 colon): 14.9 µM
TGI (HCT-116 colon): 29.7 µM
GI50 (SK-OV-3 ovarian): 38.2 µM
TGI (SK-OV-3 ovarian): 87.5 µM
GI50 (UO-31 renal): 28.1 µM
TGI (UO-31 renal): > 100 µM
GI50 (OVCAR-5 ovarian): 29.7 µM
TGI (OVCAR-5 ovarian): 72.7 µM
GI50 (HCT-15 colon): 29 µM
TGI (HCT-15 colon): > 100 µM
GI50 (CAKI-1 renal): 18.3 µM
TGI (CAKI-1 renal): 66 µM
GI50 (MALME-3M melanoma): 15.7 µM
TGI (MALME-3M melanoma): 35.7 µM

COC1OC(C)C2OC(C)(C)OC2C1OC(C)=O (stereo unspecified)
TGI (SW-620 colon): > 100 µM
TGI (HCT-116 colon): > 100 µM
TGI (OVCAR-5 ovarian): > 100 µM
TGI (HCT-15 colon): > 100 µM
TGI (CAKI-1 renal): > 100 µM
TGI (MALME-3M melanoma): > 100 µM

CCOC(=O)C(CNc1ccc(O)cc1)NC(=O)c1ccccc1 (stereo unspecified)
TGI (SW-620 colon): > 100 µM
TGI (HCT-116 colon): > 100 µM
TGI (SK-OV-3 ovarian): > 100 µM
TGI (UO-31 renal): > 100 µM
TGI (OVCAR-5 ovarian): > 100 µM
TGI (SNB-75 CNS): > 100 µM
TGI (HCT-15 colon): > 100 µM
TGI (CAKI-1 renal): > 100 µM
TGI (MALME-3M melanoma): > 100 µM

O=C(NCc1ccco1)c1cccc(NC2=C(Cl)C(=O)N(Cc3ccccc3)C2=O)c1
GI50 (SW-620 colon): 11.5 µM
TGI (SW-620 colon): > 100 µM
GI50 (MDA-MB-435): 2.33 µM
TGI (MDA-MB-435): 7.39 µM
GI50 (HCT-116 colon): 3.86 µM
TGI (HCT-116 colon): 15.1 µM
GI50 (SK-OV-3 ovarian): 45.8 µM
TGI (SK-OV-3 ovarian): > 100 µM
GI50 (UO-31 renal): 3.24 µM
TGI (UO-31 renal): 18.6 µM
GI50 (OVCAR-5 ovarian): 22.5 µM
TGI (OVCAR-5 ovarian): 63.9 µM
GI50 (SNB-75 CNS): 14.1 µM
TGI (SNB-75 CNS): 87.2 µM
GI50 (HCT-15 colon): 4.16 µM
TGI (HCT-15 colon): 24 µM
GI50 (CAKI-1 renal): 0.232 µM
TGI (CAKI-1 renal): 1.45 µM

C#CCN(C(=O)C(F)(F)F)c1ccc(C(=O)c2ccc(N(CC#C)C(=O)C(F)(F)F)cc2)cc1
TGI (SW-620 colon): > 100 µM
TGI (HCT-116 colon): > 100 µM
TGI (UO-31 renal): > 100 µM
TGI (OVCAR-5 ovarian): > 100 µM
TGI (SNB-75 CNS): > 100 µM
TGI (HCT-15 colon): 79.9 µM
TGI (MALME-3M melanoma): > 100 µM

CN(/N=C/c1cccc2cccnc12)c1c([N+](=O)[O-])cc([N+](=O)[O-])cc1[N+](=O)[O-]
TGI (SW-620 colon): > 100 µM
TGI (HCT-116 colon): > 100 µM
TGI (SK-OV-3 ovarian): > 100 µM
TGI (OVCAR-5 ovarian): > 100 µM
TGI (SNB-75 CNS): > 100 µM
TGI (HCT-15 colon): > 100 µM
TGI (CAKI-1 renal): > 100 µM
TGI (MALME-3M melanoma): > 100 µM
